The results in this text go back to patent US20070190523A1 (priority 2002, published 2007).

Like-named read-outs stand apart in the source and are kept apart here.

The subject of data set [1] is wild-type HIV-1 strain IIIB. Nature of the data set: microbe, parasite or virus in culture. It counts as cell-based. Conditions: read-out: EC50.
The subject of data set [2] is mutant HIV-1 with I84V/L90M mutations. Type of data set: cell-based.
Data set [3] addresses recombinant HIV-1 protease (Human immunodeficiency virus type 1 group M subtype B, UniProt P04585). Description: biochemical. It counts as biochemical.
Data set [4] addresses T1, 84V90M (Human immunodeficiency virus type 1 group M subtype B, UniProt P04585, I572V/L578M). Description: biochemical. Type of data set: biochemical, HIV.
The next data set concerns 48V54V82A. Description: microbe, parasite or virus in culture. It counts as cell-based, HIV.
The subject of another data set is 46I50V. Nature of the data set: microbe, parasite or virus in culture. It counts as cell-based, HIV.
In data set [5] the target is T2, WT (Human immunodeficiency virus type 1 group M subtype B, UniProt P04585). Nature of the data set: cell-based. Further details: species or system HIV.
The test system of another data set is 30N82I88D. Nature of the data set: microbe, parasite or virus in culture. It counts as cell-based, HIV.
The target in data set [6] is T2, WT. Description: biochemical. Set-up: species or system HIV.
Data set [7] addresses T1, 84V90M. Nature of the data set: cell-based. Set-up: species or system HIV.
A further data set has as its system 48V82A90M. Description: microbe, parasite or virus in culture. The note with it: Human immunodeficiency virus 1, read-out: Cell-based assay (MT-4) EC50/nM 48V82A90M. Set-up: species or system HIV.
The next data set deals with 48V54V82S. Nature of the data set: microbe, parasite or virus in culture. Further details: species or system HIV. Conditions: Human immunodeficiency virus 1, read-out: Cell-based assay (MT-4) EC50/nM 48V54V82S.
For data set [8], the target named is T1, 84V90M. Description: Cell-based assay (MT-4) EC50, 84V90M. Further details: species or system HIV-1.
Data set [9] relates to recombinant HIV-1 strains with resistance mutations in the protease gene. Description: Cross-Resistance Profile Assay, whole panel. It counts as cell-based.
Data set [10] relates to recombinant HIV-1 10I/48V/71V/82A/90M. Description: Cross-Resistance Profile Assay. It counts as cell-based.
Data set [11] relates to recombinant HIV-1 46I/47V/50V. Description: Cross-Resistance Profile Assay. It counts as cell-based.
Data set [12] concerns recombinant HIV-1 10I/84V/71V/73S/90M. Description: Cross-Resistance Profile Assay. Type of data set: cell-based.
Data set [13] relates to recombinant HIV-1 48V/54V/71V/82S. Description: Cross-Resistance Profile Assay. Type of data set: cell-based.
Data set [14] has as its system recombinant HIV-1 46I/84A. Nature of the data set: Cross-Resistance Profile Assay. Type of data set: cell-based.
For data set [15], the system named is recombinant HIV-1 10F/46I/71V/82T/90M. Nature of the data set: Cross-Resistance Profile Assay. It counts as cell-based.
Data set [16] has as its system recombinant HIV-1 10R/46I/82T/84V. Nature of the data set: Cross-Resistance Profile Assay. Type of data set: cell-based.
Data set [17] concerns the target T1, 84V90M. It counts as biochemical, HIV-1. The note with it: 84V90M enzyme; read-out: Enzymatic assay 84V90M IC50/nM.
Data set [18] concerns recombinant HIV-1 54V/71V/82S. Nature of the data set: Cross-Resistance Profile Assay. It counts as cell-based.
Data set [19] has as its system recombinant HIV-1 30N/50S/82I/88D. Description: Cross-Resistance Profile Assay. It counts as cell-based.
The subject of data set [20] is recombinant HIV-1 10I/48V/54V/82A. Description: Cross-Resistance Profile Assay. It counts as cell-based.
Setting [21] is: Human immunodeficiency virus 1, read-out: Cell-based assay (MT-4) EC50/nM 30N82I88D.
The mark [22] stands for this setting: MT-4, 84V90M, read-out: Cell-based assay (MT-4) EC50/nM 84V90M.
Setting [23] is: MT-4, WT, read-out: Cell-based assay (MT-4) EC50/nM WT.
The mark [24] stands for this setting: Enzymatic assay, 84V90M, read-out: 84V90M IC50/nM.

In the case of `CCOC(=O)C(C)OP(=O)(Cc1ccc(N(C)CC(NC(=O)OC2COC3OCCC23)C(O)CN(CC(C)C)S(=O)(=O)c2ccc(OC)cc2)cc1)Oc1ccccc1` (stereo not drawn), the EC50 in data set [1] is 500 to 5000 nM. Moreover, in data set [2] (I84V/L90M mutant), the I84V/L90M fold change entry is listed as “+++ (>30)”. Further, in data set [3] (read-out: Ki), the Ki fell in the range of 0.01 to 0.1 nM.

As for `Cc1cccc(C)c1OCC(=O)N[C@@H](Cc1ccc(OCP(=O)(Oc2ccccc2)Oc2ccccc2)cc1)[C@H](O)CN(CC(C)C)S(=O)(=O)c1ccc(N)cc1`, the Ki in data set [3] (read-out: Ki) was 0.01 to 0.1 nM.

In the case of `CCOP(=O)(CCCNC(=O)c1cccc(CN2C(=O)N(Cc3ccc(O)cc3)C(Cc3ccccc3)C(O)C(O)C2Cc2ccccc2)c1)OCC` (stereo not drawn), the IC50 on 84V90M [4] turned out to be 12 nM; at WT [6], 1.1 nM. The EC50 in the data set on 48V54V82A (Human immunodeficiency virus 1, read-out: Cell-based assay (MT-4) EC50/nM 48V54V82A) was determined as 80 nM; in the data set with 46I50V (Human immunodeficiency virus 1, read-out: Cell-based assay (MT-4) EC50/nM 46I50V) it was 85 nM; on WT [5], 65 nM; with 30N82I88D (setting [21]), 74 nM; on 84V90M [7], 311 nM; in the data set on 48V82A90M it was 74 nM. Also, the EC50 in the data set with 48V54V82S was 75 nM. The Ki in data set [3] (Ki (nM)) came to 0.009 nM.

Turning to `O=C1N(Cc2ccccc2)C(Cc2ccccc2)C(O)C(O)C(Cc2ccc(OCP(=O)(OCc3ccccc3)OCc3ccccc3)cc2)N1Cc1ccccc1` (stereo not drawn), the EC50 on 84V90M [8] is > 6000 nM.

For the compound `CCOP(=O)(COc1ccc(CC2C(O)C(O)C(Cc3ccccc3)N(Cc3ccccc3)C(=O)N2Cc2ccccc2)cc1)OCC` (stereo not drawn), the EC50 at WT [5] came to 107 nM; on 84V90M [7] (setting [22]), 2460 nM.

As to `CC(C)CN(C[C@@H](O)[C@H](Cc1ccccc1)NC(=O)O[C@H]1CCOC1)S(=O)(=O)c1ccc(N)cc1` [Amprenavir, amprenavir], the “Total No. of Resistant Viruses” value in data set [9] ({}) came to 4.

With `COc1ccc(S(=O)(=O)N(CC(C)C)C[C@@H](O)[C@H](Cc2ccccc2)NC(=O)O[C@H]2CO[C@H]3OCC[C@H]32)cc1` [Example 94-003], the “Total No. of Resistant Viruses” value in data set [9] ({}) is reported as 3.

For the compound `CCCCOC(=O)C(C)NP(=O)(COc1ccc(CC(NC(=O)OC2COC3OCCC23)C(O)CN(CC(C)C)S(=O)(=O)c2ccc(OC)cc2)cc1)NC(C)C(=O)OCCCC` (stereo not drawn) [GS-16503], in the data set with MT-2 cells, the “increase of conversion to acid metabolites at 1 μM vs. 10 μM” value came to 3 fold. Further, in data set [9] (resistance = 5-fold and higher change in EC50 relative to wild type, 11 mutant viruses), the “Total No. of Resistant Viruses” value is on record as 0.

Turning to `CC(C)(C)NC(=O)[C@@H]1CN(Cc2cccnc2)CCN1C[C@@H](O)C[C@@H](Cc1ccccc1)C(=O)N[C@H]1c2ccccc2C[C@H]1O` [Indinavir], the “Total No. of Resistant Viruses” value in data set [9] ({}) is 8.

For `Cc1cccc(C)c1OCC(=O)N[C@@H](Cc1ccccc1)[C@@H](O)C[C@H](Cc1ccccc1)NC(=O)[C@H](C(C)C)N1CCCNC1=O` [Lopinavir], the “Fold Change in EC50 Relative to WT HIV-1” value in data set [10] is 4.5 fold; in [11], 19 fold; in [12], 11 fold; in [13] it was 60 fold; in [14], 9 fold; in [15] it was 7.5 fold. In addition, the “Fold Change in EC50 Relative to WT HIV-1” value in data set [16] turned out to be 11 fold. In addition, the “Total No. of Resistant Viruses” value in [9] ({}) was 6.

With `Cc1c(O)cccc1C(=O)N[C@@H](CSc1ccccc1)[C@H](O)CN1C[C@H]2CCCC[C@H]2C[C@H]1C(=O)NC(C)(C)C` [Nelfinavir, nelfinavir], in [9] ({}), the “Total No. of Resistant Viruses” value came out at 9.

With `CCOP(=O)(COCCCN1C(=O)N(Cc2ccc3[nH]nc(N)c3c2)C(Cc2ccccc2)C(O)C(O)C1Cc1ccccc1)OCC` (stereo not drawn) [OCH2PO3Et2], the EC50 in the data set with 48V54V82A (MT-4, 48V54V82A, read-out: Cell-based assay (MT-4) EC50/nM 48V54V82A) was determined as 175 nM; in the data set with 46I50V (MT-4, 46I50V, read-out: Cell-based assay (MT-4) EC50/nM 46I50V), 138 nM; on WT [5] (setting [23]), 356 nM; in the data set on 30N82I88D (MT-4, 30N82I88D, read-out: Cell-based assay (MT-4) EC50/nM 30N82I88D), 145 nM.

Consider `Nc1n[nH]c2ccc(CN3C(=O)N(CCCOCP(=O)(O)O)C(Cc4ccccc4)C(O)C(O)C3Cc3ccccc3)cc12` (stereo not drawn) [OCH2PO3H2], for which the values for the EC50 on WT [5] (setting [23]) and at 84V90M [7] (setting [22]) were 1070 nM and > 600 nM, respectively.

On to `CCOP(=O)(CCNC(=O)Oc1ccc(CC2C(O)C(O)C(Cc3ccc(OC)cc3)N(Cc3cccc(N)c3)C(=O)N2Cc2cccc(N)c2)cc1)OCC` (stereo not drawn) [OCH3 / Ph-mNH2 / OCONH(CH2)2PO3Et2], for which the IC50 at 84V90M [17] is 116 nM. In addition, the EC50 at 84V90M [8] came out at 2260 nM.

`CCOP(=O)(CCNC(=O)Oc1ccc(CC2C(O)C(O)C(Cc3ccc(OC)cc3)N(Cc3ccc(O)cc3)C(=O)N2Cc2ccc(O)cc2)cc1)OCC` (stereo not drawn) [OCH3 / Ph-pOH / OCONH(CH2)2PO3Et2] displayed an EC50 on 84V90M [8] of 495 nM.

Turning to `CCOP(=O)(COc1ccc(CC2C(O)C(O)C(Cc3ccc(O)cc3)N(Cc3ccc(O)cc3)C(=O)N2Cc2ccc(O)cc2)cc1)OCC` (stereo not drawn) [OH, Ph-pOH, OCH2PO3Et2], the values for the EC50 at WT [5] and at 84V90M [7] (setting [22]) were 285 nM and 1910 nM, respectively.

Turning to `CC(C)c1nc(CN(C)C(=O)N[C@H](C(=O)N[C@@H](Cc2ccccc2)C[C@H](O)[C@H](Cc2ccccc2)NC(=O)OCc2cncs2)C(C)C)cs1` [Ritonavir], the “Total No. of Resistant Viruses” value in data set [9] ({}) was found to be 10.

With `CC(C)(C)NC(=O)[C@@H]1C[C@@H]2CCCC[C@@H]2CN1C[C@@H](O)[C@H](Cc1ccccc1)NC(=O)[C@H](CC(N)=O)NC(=O)c1ccc2ccccc2n1` [Saquinavir], the “Total No. of Resistant Viruses” value in data set [9] ({}) came out at 4.

Take `CCC[C@@]1(CCc2ccccc2)CC(O)=C([C@H](CC)c2cccc(NS(=O)(=O)c3ccc(C(F)(F)F)cn3)c2)C(=O)O1` [Tipranavir]: the “Fold Change in EC50 Relative to WT HIV-1” value is 3.5 fold in data set [18]; 0.3 fold in data set [10]; 0.5 fold in data set [11]; 2 fold in [13]; 0.5 fold in data set [19]; 1 fold in [14]. In addition, the “Fold Change in EC50 Relative to WT HIV-1” value in [15] is given as 3 fold; in data set [20], 0.4 fold; in data set [16], 5 fold. The I84V/L90M fold change result in [2] (fold difference in EC50 vs wild type, class symbols) was “+ (>3 to ≦10)”. Besides, the “Total No. of Resistant Viruses” value in data set [9] ({}) stood at 1.

`Nc1n[nH]c2ccc(CN3C(=O)N(Cc4cccc(OCc5ccccc5)c4)C(Cc4ccccc4)C(O)C(O)C3Cc3ccccc3)cc12` (stereo not drawn) [m-OBn]: the IC50 at 84V90M [4] (setting [24]) is 27 nM. Besides, the EC50 worked out at 218 nM at WT [5] and 2420 nM at 84V90M [7] (setting [22]).

`Nc1n[nH]c2ccc(CN3C(=O)N(Cc4ccc(OCc5ccccc5)cc4)C(Cc4ccccc4)C(O)C(O)C3Cc3ccccc3)cc12` (stereo not drawn) [p-OBn]: the IC50 on 84V90M [4] (setting [24]) amounted to 781 nM. Also, the EC50 is 2120 nM at WT [5], 1550 nM with 30N82I88D (setting [21]) and 5310 nM at 84V90M [7].

Consider `Nc1n[nH]c2ccc(CN3C(=O)N(Cc4ccc(OCP(=O)(O)O)cc4)C(Cc4ccccc4)C(O)C(O)C3Cc3ccccc3)cc12` (stereo not drawn) [p-OCH2PO3H2], for which the IC50 at 84V90M [4] (setting [24]) is 1660 nM. Also, the EC50 at WT [5] is > 12000 nM.

On to `O=C1N(Cc2ccccc2)[C@H](Cc2ccccc2)[C@H](O)[C@@H](O)[C@@H](Cc2ccccc2)N1Cc1ccc2[nH]ncc2c1` [reference compound], for which the values for the EC50 on WT [5] and on 84V90M [7] (setting [22]) were 193 nM and 2310 nM, respectively.

One may read the Ki as the equilibrium dissociation constant of an inhibitor or competing ligand from its target.
